This note sets out measurements from patent publication US8404696B2, “Quinazoline-2,4-dione derivative, and medical compositions for the prophylaxis and treatment of cranial nerve disease containing the same” (Shin Poong Pharmaceutical Co., Ltd., priority 2008, dated 2013).

This assay has as its system pentylentetrazole (PTZ)-induced convulsion. Nature of the assay: Anti-convulsant effect, pentylentetrazole (PTZ) test. It is filed as in vivo. To be noted: 10 mg/kg intraperitoneally, PTZ 80 mg/kg subcutaneously, (animals/total). The procedure:
An experiment was performed by the method of Ali et al. (Ali, A. et al. 2006, Pharmacological Reports, 58: 242-245). A 10 mg/kg dose of compound was intraperitoneally administered to identify the anti-convulsant effect and the effect was observed (Table 8). Researching the process of activity was performed by the Anti-epileptic Drug Development Program (ADD) of NIH during development of the anti-convulsant drug. One of the assessed items of anti-convulsant activity in the first step of this program is the pentylentetrazole (PTZ) test. […] After 10 mg/kg of the testing drug was administered, assessment was performed by estimating the initiation time of convulsion, duration until convulsion completely disappeared and mortality rate. It was assessed as having an anti-convulsant effect when a single episode of clonic spasm was not shown over 5 seconds on at least one of the 4 laboratory animals after PTZ administration.

With `CN1C(=O)CN=C(c2ccccc2)c2cc(Cl)ccc21` [Diazepam, reference compound], for the setting “negative control 70(17/23)”, the mortality rate was 0(0/6) %. The “Induction percentage of convulsion” value (negative control 100(23/23)) was 0(0/6) %.
